Results published in patent US20240327407A1, “NOVEL INHIBITORS OF AUTOTAXIN” (CADILA HEAL THCARE LIMITED, priority 2021, published 2024).

Target: ATX (Mus musculus (Mouse), UniProt Q9R1E6)
Assay: Mice serum ATX inhibitory activity (IC50 determination)
Format: biochemical
Procedure: ATX Inhibitory activity was determined in a biochemical or whole blood assay as described previously (Bretschneider, T. et al., SLAS Discov 2017, 22, 425). The biochemical reaction consisted of 50 mM Tris (pH 8.0), 3 mM KCl, 1 mM CaCl2, 1 mM Mg Cl2, […] NaCl and 0.1% bovine serum albumin, which was supplemented with 5 nM recombinant rat ATX, 5 μM 18:1 LPC and the test compound (0.1-10 μM). The reaction was stopped at 2 h by the addition of butanol, prior to the RapidFire-MS-based analysis.
The whole blood assay consisted of 45 μL μL heparinized mice/rat whole blood and the test compound (0.12-100 μM). The reaction was stopped after 1 h at 37° C. by addition of 100 μL 40 mM disodium hydrogen phosphate buffer containing 30 mM citric acid (pH 4) and 1 μM 17:0 LPA (internal standard). Afterwards the samples were treated a described above and analysed by LC-MS/MS. The data was analyzed using graph pad prism (v 7.03) to arrive at the half-maximal inhibitory concentrations (IC50) of the test compounds.

SMILES | IC50
CC(C)[C@H](NC(=O)c1cc(C(F)(F)F)ccc1F)C(=O)N1CCC2(CC1)CC(=O)N(C)CC2c1ccccc1 (stereo partly drawn) [Compound 185, 2-fluoro-N-((2S)-3-methyl-1-(9-methyl-10-oxo-7-phenyl-3,9-diazaspiro-[5.5]undecan-3-yl)-1-oxobutan-2-yl)-5-(trifluoromethyl)benzamide] | 12 nM
Cc1ccnc(C(=O)N[C@@H](C(=O)N2CCC3(CC2)CC(=O)N(C)CC3c2ccccc2)C(C)C)c1 (some centres unmarked) [Compound 194] | 15.9 nM
CC(C)[C@@H](NC(=O)c1cc(C(F)(F)F)ccc1F)C(=O)N1CCC2(CCN(C)CC2c2ccccc2)CC1 (stereo partly drawn) [Compound 220, 2-fluoro-N-((2R)-3-methyl-1-(9-methyl-7-phenyl-3,9-diazaspiro[5.5]-undecan-3-yl)-1-oxobutan-2-yl)-5-(trifluoromethyl)benzamide] | 9.9 nM
CC(C)[C@@H](NC(=O)c1cc(C(F)(F)F)ccc1F)C(=O)N1CCC2(CCN(C)CC2c2ccc(F)cc2)CC1 (stereo partly drawn) [Compound 221, 2-fluoro-N-((2R)-1-(7-(4-fluorophenyl)-9-methyl-3,9-diazaspiro[5.5]-undecan-3-yl)-3-methyl-1-oxobutan-2-yl)-5-(trifluoromethyl)benzamide] | 5.1 nM
CCc1nc2c(C)cc(N3CCN(CC(=O)N4CC(O)C4)CC3)cn2c1N(C)c1nc(-c2ccc(F)cc2)c(C#N)s1 [GLPG1690] | 508 nM
